Where two headings read alike, the source gives them in different places.

Assay [1] has as its target human TRPV1 receptor (hTRPV1) (Homo sapiens (Human), UniProt Q8NER1). The experiment in a line: Acid activation assay (pH 5.0, FLIPR intracellular Ca2+). It is filed as cell-based. The note with it: 37.5 μM antagonist, percentage of the maximal pH 5.0-induced response remaining, read-out: hTRPV1 H+ (max % remain). In short, it runs like this:
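1321N1 astrocytoma cells stably expressing homomeric hTRPV1, loaded with Calcium-4 dye 90–120 min at 25 °C. Compounds, 12-point half-log range, added 3 min before pH 5.0 DPBS/MES challenge; intracellular Ca2+ read by FLIPR fluorescence.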

The subject of assay [2] is Sprague-Dawley rats. As to the kind of experiment: Rat acute capsaicin-induced flinching behavior. Type of assay: in vivo. As to conditions: percent reduction in number of flinching behaviors. The text has this: (§1) Adult male Sprague-Dawley rats (250-300 g body weight, Charles River Laboratories, Portage, Mich.) were used. Animal handling and experimental protocols were approved by the Institutional Animal Care and Use Committee (IACUC) at Abbott Laboratories. For all surgical procedures, animals were maintained under isoflurane anesthesia (4-5% to induce, 1-3% to maintain), and the incision sites were sterilized using a 10% povidone-iodine solution prior to and after surgeries.
Rats were placed in individual observation cages. […] One hour after administration of the test compound, 2.5 μg of capsaicin in a 10 μL solution of 10% ethanol/90% hydroxypropyl-β-cyclodextrin was injected subcutaneously into the dorsal aspect of the right hind paw. The observation cage was then suspended above mirrors in order to facilitate observation. […] The number of flinching behaviors of the injured paw was recorded during the five minute observation period (Gilchrist, H. D.; Allard, B. L.; Simone, D. A.; Enhanced withdrawal responses to heat and mechanical stimuli following intraplantar injection of capsaicin in rats. Pain, 1996, 67, 179-188). The percent reduction in the number of flinching behaviors produced with oral administration of representative compounds of the present invention relative to control-treated animals (% effect) is reported in Table 3.

The subject of assay [3] is Sprague-Dawley rats. The experiment in a line: Capsaicin-induced secondary mechanical hypersensitivity. It is filed as in vivo, rat.
From the text: as §1
Rats were allowed to acclimate to the study room for 1 hour. They were then briefly restrained, and capsaicin was administered at 10 μg in 10 μL of vehicle (10% ethanol and 2-hydroxypropyl cyclodextrin) by intraplantar injection into the center of the right hind paw. Secondary mechanical hyperalgesia was measured at the heel away from the site of injection at 180 minutes following the administration of capsaicin (Joshi et al 2006, Neuroscience 143, 587-596). Compounds were administered orally (p.o.) one hour before testing ([…]).
Tactile allodynia was measured using calibrated von Frey filaments (Stoelting, Wood Dale, Ill.) as described in Chaplan, S. R., F. W. Bach, J. M. Pogrel, J. M. Chung and T. L. Yaksh, Quantitative assessment of tactile allodynia in the rat paw, J. Neurosci. Methods, 1994, 53, 55. Rats were placed into inverted individual plastic containers (20×12.5×20 cm) on top of a suspended wire mesh grid, and acclimated to the test chambers for 20 minutes. The von Frey filaments with different bending forces (starting with the lowest first and then progressively increasing) were presented perpendicularly to the plantar surface of the selected hind paw, and then hold in this position for approximately 8 sec with enough force to cause a slight bend in the filament. Positive responses included an abrupt withdrawal of the hind paw from the stimulus, or flinching behavior immediately following removal of the stimulus.

human TRPV1 receptor (hTRPV1), sequence (Q8NER1 whole entry): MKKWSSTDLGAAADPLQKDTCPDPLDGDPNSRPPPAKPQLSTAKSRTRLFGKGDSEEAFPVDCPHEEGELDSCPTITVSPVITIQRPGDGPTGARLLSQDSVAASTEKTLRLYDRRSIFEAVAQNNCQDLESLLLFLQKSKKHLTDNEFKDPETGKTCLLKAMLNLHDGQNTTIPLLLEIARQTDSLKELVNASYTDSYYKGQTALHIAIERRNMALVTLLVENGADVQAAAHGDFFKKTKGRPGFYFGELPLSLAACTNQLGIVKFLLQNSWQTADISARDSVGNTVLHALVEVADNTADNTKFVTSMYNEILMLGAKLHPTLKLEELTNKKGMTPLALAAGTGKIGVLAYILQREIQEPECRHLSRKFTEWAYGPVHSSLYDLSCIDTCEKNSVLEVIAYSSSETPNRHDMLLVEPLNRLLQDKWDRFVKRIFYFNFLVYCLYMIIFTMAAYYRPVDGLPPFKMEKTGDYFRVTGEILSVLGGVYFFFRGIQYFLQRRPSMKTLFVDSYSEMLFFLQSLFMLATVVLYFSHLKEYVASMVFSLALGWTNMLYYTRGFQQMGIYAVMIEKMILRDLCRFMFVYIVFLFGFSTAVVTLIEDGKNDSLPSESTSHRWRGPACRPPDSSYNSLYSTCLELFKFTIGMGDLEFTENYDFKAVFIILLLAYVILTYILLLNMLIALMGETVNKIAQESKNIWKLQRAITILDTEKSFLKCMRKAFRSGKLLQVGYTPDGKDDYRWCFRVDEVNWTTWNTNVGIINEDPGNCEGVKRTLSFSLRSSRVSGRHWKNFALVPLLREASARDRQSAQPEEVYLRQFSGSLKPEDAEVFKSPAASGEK

As to `Cn1ncc2c(NC(=O)N[C@@H]3CC[C@H](c4ccccc4)C3)cccc21` [Example 4, 1-(1-methyl-1H-indazol-4-yl)-3-[(1R,3S)-3-phenylcyclopentyl]urea], the remaining activity at 37.5 µM in assay [1] (Table 1) amounted to 37%; in assay [1] (Table 2), 21%.
With `Cc1cc2c(NC(=O)N[C@@H]3CC[C@H](c4ccccc4)C3)c(F)ccc2cn1` [Example 6, 1-(6-fluoro-3-methylisoquinolin-5-yl)-3-[(1R,3S)-3-phenylcyclopentyl]urea], the “% effect” value in assay [2] (100 μmol/kg p.o.) is 88%; in assay [3] (10 μmol/kg p.o.), 59%. The remaining activity at 37.5 µM in assay [1] (Table 1) and in assay [1] (Table 2) was 62% throughout.
Consider `O=C(Nc1cccc2[nH]ncc12)N[C@H]1CC[C@H](c2ccccc2)C1` [Example 14, 1-(1H-indazol-4-yl)-3-[(1S,3S)-3-phenylcyclopentyl]urea], for which the “% effect” value worked out at 76% in assay [2] (10 μmol/kg p.o.) and 48% in assay [3] (100 μmol/kg p.o.). In addition, the remaining activity at 37.5 µM in assay [1] (Table 1) and in assay [1] (Table 2) was 36% in each case.
Take `O=C(Nc1cccc2[nH]ncc12)N[C@@H]1CC[C@@H](c2ccccc2)C1` [Example 21, 1-(1H-indazol-4-yl)-3-[(1R,3R)-3-phenylcyclopentyl]urea]: the remaining activity at 37.5 µM in assay [1] (Table 1) and in assay [1] (Table 2) was 8% each time.
With `O=C(Nc1cccc2[nH]ncc12)N[C@H]1CC[C@@H](c2ccccc2)C1` [Example 28, 1-(1H-indazol-4-yl)-3-[(1S,3R)-3-phenylcyclopentyl]urea], the “% effect” value in assay [2] (10 μmol/kg p.o.) came out at 60%; in assay [3] (100 μmol/kg p.o.) it was 81%. Besides, the remaining activity at 37.5 µM in assay [1] (Table 1) and in assay [1] (Table 2) was 41% each time.

The record behind these values is patent US8802711B2, “TRPV1 antagonists” (AbbVie Inc., priority 2011, dated 2014).
